Data reported in patent publication US12410178B2, “Small cationic ortho-5,15-di-heteroaryl-porphyrin derivatives and their applications in photoinactivation of microorganisms” (UNIVERSIDADE DE COIMBRA, priority 2019, dated 2025).

Key:
[1] = test system: Staphylococcus aureus methicillin-resistant (MRSA) strain Sa1CHUC; experiment: PDI phototoxicity towards multidrug-resistant planktonic bacteria (CFU); assay type: cell-based; settings: 60 min incubation, 1.36 J/cm^2 at 415 nm
Description: (§1) Phototoxicity towards bacteria was evaluated in vitro. Assays were performed with the following bacteria: Escherichia coli ATCC 25922, Pseudomonas aeruginosa ATCC 27853 and Staphylococcus aureus ATCC 29213. Further assay were performed with clinical antibiotic-resistant strains from the Centro Hospitalar da Universidade de Coimbra, namely Staphylococcus aureus methicillin-resistant (MRSA) strain Sa1CHUC recovered from the skin of a burnt patient (resistant to all beta-lactamic antibiotics), and Acinetobacter baumannii 141HUC isolated from an exudate of a burn wound and highly resistant to all beta-lactamics (penicillins, cephalosporins, monobactams and carbapenems), quinolones and the aminoglycosides gentamicin and netilmicin. The planktonic bacteria cells were cultured in Mueller Hinton (MH) agar (Sigma Aldrich) at 37° C. overnight. Cell density was adjusted to the 0.5 McFarland standard in sterile water, which corresponds to approximately 1.5×10^8 CFU/mL. For PDI experiments cell suspensions of bacteria were incubated with various concentrations of the photosensitizers for 1 h, in the dark, at room temperature, using a 96 well plate. Then, the plate was illuminated with a blue light LED (420 nm, 4 mJ/s). Cells incubated with photosensitizers in the dark were covered with aluminum foil for the same time as the PDI groups (1 h). After illumination (or dark incubation) samples were shaken, diluted in PBS and mixed. Aliquots were taken from each well and streaked in MH agar in duplicate for CFU determination and incubated for 37° C./18-24 h in the dark. After 24 h, the colonies were counted and CFU determined. The experiments were performed in triplicate. Statistical analysis was performed with GraphPad Prism 6.
(§2) This example describes the evaluation of in vitro phototoxicity against multidrug-resistant Gram-positive and Gram-negative bacteria of the cationic ortho-5,15-di-heteroaryl porphyrin with Formula (IIa). Assays were performed with clinical resistant strains from the Centro Hospitalar da Universidade de Coimbra, namely Staphylococcus aureus methicillin-resistant (MRSA) strain Sa1CHUC collected from the skin of a burnt patient (resistant to all beta-lactamic antibiotics), and Acinetobacter baumannii 141HUC highly resistant all beta-lactamics, including carbapenems, quinolones, gentamicin and netilmicin, isolated from an exudate of a burn wound. The phototoxicity was measured according to the description in the Materials and Methods section. […] There is a dose-phototoxicity response of the test compound relative to the non-treated control. FIG. 9 illustrates the CFU reduction as a function of photosensitizer concentration for the light dose of 1.36 J/cm^2 at 415 nm.

[2] = test system: Acinetobacter baumannii 141HUC; experiment: as above; assay type: cell-based; settings: 60 min incubation, 1.36 J/cm^2 at 415 nm
Description: as §1, §2

[3] = test system: Staphylococcus aureus ATCC 29213; experiment: PDI phototoxicity towards planktonic bacteria (CFU); assay type: cell-based
Description: as §1
(§3) This example describes the evaluation of in vitro phototoxicity against Gram-positive and Gram-negative bacteria of the cationic ortho-5,15-di-heteroaryl porphyrin with Formula (IIa). The phototoxicity was measured according to the description in the Materials and Methods section. […] There is a dose-phototoxicity response of the test compound relative to the non-treated control. FIG. 8 illustrates the CFU reduction as a function of photosensitizer concentration for the light dose of 1.36 J/cm^2 at 415 nm.

[4] = test system: Escherichia coli ATCC 25922; experiment: as above; assay type: cell-based
Description: as §1, §3

[5] = test system: Pseudomonas aeruginosa ATCC 27853; experiment: as above; assay type: cell-based; settings: 60 min incubation
Description: as §1, §3

[6] = Singlet oxygen quantum yield; assay type: physicochemical; settings: excitation 355 nm, reference phenalenone
Description: Singlet Oxygen Quantum Yield: The experiments were run at room temperature. The solutions were excited at 355 nm using a Nd-YAG laser (Spectra-Physics Quanta-Ray GRC-130) and the phosphorescence of singlet oxygen collected at 1270 nm in a Hamamatsu R5509-42 photomultiplier, cooled to 193 K in a liquid nitrogen chamber, after selection of the wavelength with a monochromator with 600 lines grading. A Newport filter model 10LWF-1000-B was used in the emission to avoid scattering and fluorescence. Phenalenone was used as a reference of singlet oxygen generator, ΦΔ^Ref=0.98. Extrapolating to time-zero the decays of the singlet molecular oxygen emissions measured for sample and the reference solutions at a given laser intensity, we obtained a relation between emission intensities as a function of laser intensity, that is identical to the relation between the singlet molecular oxygen quantum yields. The singlet oxygen quantum yields were obtained by comparing the linear dependence between and the energy of the laser pulse for both the sample and the reference for the same absorption of sample and reference at the excitation wavelength, taking into account the singlet oxygen quantum yield of phenalenone.

[7] = n-Octanol:PBS partition ratio (modified shake-flask); assay type: physicochemical; settings: equal volumes
Description: n-Octanol:PBS partition ratio: a modification of the shake-flask method was employed to determine the equilibrium concentrations of the photosensitizer in n-octanol and in phosphate-buffered saline (PBS) mixed in equal volumes, using the typical fluorescence band of the same photosensitizer and the ratio of the fluorescences after dilution by the same factor with dimethylsulfoxide.

[8] = 1 μM, planktonic, 1.36 J/cm^2 at 415 nm, 60 min incubation
[9] = nanomolar concentrations, 60 min incubation, low light doses

Cn1cc[n+](C)c1C1=C2C=CC3=[N+]2[Zn@]24[n]5c(ccc51)C=C1C=CC(=[N+]12)C(c1n(C)cc[n+]1C)=c1ccc([n]14)=C3 [Formula (IIa), 5,15-bis(1,3-dimethylimidazol-2-yl)porphyrinate zinc (II) diiodide]
reduction of the number of bacterial CFU (in words) ([1]; 1 μM): dramatic decrease in CFU
log CFU at 1 μM, S. Aureus MRSA ([1]; planktonic): 7
reduction of the number of bacterial CFU (in words) ([2]; 1 μM): dramatic decrease in CFU
log CFU at 1 μM, Acinetobacter 141Hu ([2]; planktonic): 7
reduction of the number of bacterial CFU ([3]; 1 μM, 1.36 J/cm^2 at 415 nm): 7 orders of magnitude
log CFU at 1 μM, S. Aureus [3, 8]: 7
CFU reduction (in words) [3, 9]: dramatic decrease in CFU
reduction of the number of bacterial CFU ([4]; 1 μM, 1.36 J/cm^2 at 415 nm): 7 orders of magnitude
log CFU at 1 μM, E. Coli [4, 8]: 7
CFU reduction (in words) [4, 9]: dramatic decrease in CFU
log CFU at 1 μM, P. Aerogirosa ([5]; 1 μM, planktonic, 1.36 J/cm^2 at 415 nm): 3
CFU reduction (in words) ([5]; nanomolar concentrations, low light doses): dramatic decrease in CFU
ΦΔ singlet oxygen generation quantum yield [6]: 0.75
log Pow [7]: −1.16
